Reference: patent US11491109B2, “Pharmaceutical compositions for basic or neutral, low molecular weight compounds” (Hoffmann-La Roche Inc., priority 2017, dated 2022)
Converted amounts (≈) assume the structure as drawn. “And” between values parts separate entries of the source, which are not always exact repeats. Equal entries are not always repeated. Where two headings read alike, the source gives them in different places.

What was measured:
Format in all cases: physicochemical
[1] = pKa via photometric titration (Roche internal data); details: measured via photometric titration; basic model compounds
[2] = Drug solubility in water (aqueous solubility); details: thermodynamic from solid
[3] = Equilibrium solubility in EPO-solutions, 96-well SORESOS assay; details: for Adjusted SE in EPO 0.1% / Adjusted SE in EPO 0.5% / Adjusted SE in EPO 1.0% / Adjusted SE in EPO 2.0% / Adjusted SE in EPO 3.0% / Adjusted SE in EPO 4.0% / Adjusted SE in EPO 5.0%: vs adjusted solubility in water at pH 6.0; for Non-adjusted SE in EPO 0.1% (in brackets) / Non-adjusted SE in EPO 0.5% (in brackets) / Non-adjusted SE in EPO 1.0% (in brackets) / Non-adjusted SE in EPO 2.0% (in brackets) / Non-adjusted SE in EPO 3.0% (in brackets) / Non-adjusted SE in EPO 4.0% (in brackets) / Non-adjusted SE in EPO 5.0% (in brackets): vs measured solubility in water; for course of solubility with polymer concentration: EPO 0.1-5%
Method: Polymer solutions were prepared by dissolving EPO (0.1%, 0.5%, 1%, 2%, 3%, 4%, 5% (w/w)) in deionized water and adjusting all solutions to pH 6.0 by hydrochloric acid and sodium hydroxide at 25° C. Solutions were checked carefully for absence of particles.
(§1) Solubility of compounds in EPO-solutions was determined by using a 96-well assay that was introduced to measure equilibrium solubility in parallel to a solid state analysis of the residual solid (SORESOS)^21 as described before.^22 In brief, APIs were dispensed using the powder-picking-method^23 in a 96-well flat bottom plate (Corning Inc., Durham, USA). Mixtures were agitated by head-over-head rotation for 48 h at room temperature after addition of stir bars and polymer solutions (150 μl). After mixing, the suspensions were carefully transferred into 96-well filter plates and the liquid and solid phase were separated by centrifugation. […] An isocratic flow (composition of the mobile phase is listed in Table 2) was applied for 0.3 min at a flow rate of 0.75 mL/min. […] Solid state analysis of residual solid was performed by X-ray powder diffraction (XRPD) using a STOE Stadi P Combi diffractometer with a primary Ge-monochromator (Cu Kα radiation), imaging plate position sensitive detector (IP-PSD), and a 96-well sample stage as described before.^21 The IP-PSD allowed simultaneous recording of the diffraction pattern on both sides of the primary beam which were summed up by the software STOE WinXPOW to reduce effects related to poor crystal orientation statistics. Samples were analyzed directly in the 96-well filter plate with an exposure time of 5 min per well.
as §1, with “After addition of stir bars and polymer solutions (150 μl), mixtures” for “Mixtures”, “temperature.” for “temperature after addition of stir bars and polymer solutions (150 μl).”, “7)” for “2)”

[4] = pH of drug suspensions in water and in EPO-solutions; details: EPO 0.5%, 2%, and 5%; solutions started at pH 6.0
Method: All excipient solutions were adjusted to pH 6.0 before incubation and following equilibration, the residual solid was analyzed by means of XRPD. […] This extrapolation method was based on the Henderson-Hasselbalch equation and it is generally reliable when the experimental solubility value is within one pH unit difference.^25

[5] = 24 h incubation, pH not adjusted, read-out: Solubility in water (standard deviation, n = 3)
[6] = extrapolated to pH 6.0 by Henderson-Hasselbalch equation, read-out: Adjusted solubility at pH 6.0

pKa [1]	solubility at 24 h [2, 5] [µg/mL]	solubility at 24 h [2, 6] [µg/mL]	Adjusted SE in EPO 0.1% [3]	Non-adjusted SE in EPO 0.1% (in brackets) [3]	Adjusted SE in EPO 0.5% [3]	Non-adjusted SE in EPO 0.5% (in brackets) [3]	Adjusted SE in EPO 1.0% [3]	Non-adjusted SE in EPO 1.0% (in brackets) [3]	Adjusted SE in EPO 2.0% [3]	Non-adjusted SE in EPO 2.0% (in brackets) [3]	Adjusted SE in EPO 3.0% [3]	Non-adjusted SE in EPO 3.0% (in brackets) [3]	Adjusted SE in EPO 4.0% [3]	Non-adjusted SE in EPO 4.0% (in brackets) [3]	Adjusted SE in EPO 5.0% [3]	Non-adjusted SE in EPO 5.0% (in brackets) [3]	Structure (SMILES)	course of solubility with polymer concentration ([3]; 48 h, room temperature)	also measured
7.8	1 (≈ 2.71 µM)	1 (≈ 2.71 µM)	2.7 (2.7)	2.7 (2.7)	10.3 (10.3)	10.3 (10.3)	15.3 (15.3)	15.3 (15.3)	29.3 (29.3)	29.3 (29.3)	37.3 (37.3)	37.3 (37.3)	39.0 (39.0)	39.0 (39.0)	37.0 (37.0)	37.0 (37.0)	C(=C\c1ccccc1)/CN1CCN(C(c2ccccc2)c2ccccc2)CC1 [CNZ, Cinnarizine]	–	–
8.1	–	71 (≈ 175 µM)	1.7	24.3	6.7	94.9	6.9	–	10.7	152.3	11.1	157.4	10.6	150.9	11.7	165.9	COc1ccccc1OCCNCC(O)COc1cccc2[nH]c3ccccc3c12 (stereo not drawn) [CVD, carvedilol]	–	EPO concentration at which solubility reached a plateau ([3]; 48 h, room temperature): 2 % EPO (w/w)
–	–	–	–	–	–	–	–	–	–	–	–	–	–	–	–	–	CCOC(=O)C1=C(C)NC(C)=C(C(=O)OC)C1c1cccc(Cl)c1Cl (stereo not drawn) [FLP, felodipine]	increase of solubility with polymer concentration up to 5% EPO	solubility ([2]; neutral model compounds, n = 3): 0.4 µg/mL (≈ 1.04 µM)
–	–	–	–	–	–	–	–	–	–	–	–	–	–	–	–	–	COC1=CC(=O)C[C@@H](C)[C@]12Oc1c(Cl)c(OC)cc(OC)c1C2=O [GFN, griseofulvin]	solubility decreased again and finally reached a kind of plateau	EPO concentration of maximum solubility ([3]; 48 h, room temperature): 2 % EPO (w/w)
9.2	63 (≈ 167 µM)	2450 (≈ 6470 µM)	0.2	7.2	1.0	37.3	1.5	58.3	2.4	–	3.6	141.5	4.4	172.5	4.8	186.2	OC(c1cc(C(F)(F)F)nc2c(C(F)(F)F)cccc12)C1CCCCN1 (stereo not drawn) [MFQ, mefloquine]	increase of solubility with polymer concentration up to 5% EPO	solubility at 48 h ([3]; aqueous EPO polymer solution, pH 6, aqueous with cosolvent or surfactant or cyclodextrin, thermodynamic from solid, EPO 5%, 48 h, room temperature): 12000 µg/mL (≈ 31700 µM); pH after 48 h in EPO [4]: 6.3 and 6.4
8.6	2 (≈ 4.33 µM)	13 (≈ 28.2 µM)	2.0	12.8	5.4	35.3	5.0	32.3	6.9	45.0	8.5	55.2	9.3	60.2	9.8	63.8	O=c1[nH]c2ccccc2n1C1CCN(CCCC(c2ccc(F)cc2)c2ccc(F)cc2)CC1 [PMZ, Pimozide]	increase of solubility with polymer concentration up to 5% EPO	–
9.1	2 (≈ 4.24 µM)	13 (≈ 27.6 µM)	2.5	16.0	6.6	43.2	8.3	54.0	11.7	76.2	15.3	99.3	14.6	94.8	14.0	91.2	CC(C)(C)c1ccc(C(O)CCCN2CCC(C(O)(c3ccccc3)c3ccccc3)CC2)cc1 (stereo not drawn) [TFD, terfenadine]	–	EPO concentration at which solubility reached a plateau ([3]; 48 h, room temperature): 2 % EPO (w/w)
9.7	–	–	–	–	–	–	–	–	–	–	–	–	–	–	–	–	CC/C(=C(\c1ccccc1)c1ccc(OCCN(C)C)cc1)c1ccccc1 [TMX, tamoxifen]	–	–
